# Values of other authors, collected in paper PMC8177775 (Cancer Science, 2021).
# Experiments:
# [1] = system: patients with acute myeloid leukemia; details: n = 36; cited from earlier work
# [2] = system: patients with wild‐type p53 and RAS or RAF mutations and locally advanced or metastatic solid tumors; details: 26 patients; cited from earlier work
# [3] = system: patients with solid tumors; details: cited from earlier work
smiles,measurement,setting,value
CC(C)[C@@H](CS(=O)(=O)C(C)C)N1C(=O)[C@@](C)(CC(=O)O)C[C@H](c2cccc(Cl)c2)[C@H]1c1ccc(Cl)cc1 [AMG 232],Common treatment-related AEs,[1],"nausea, diarrhea, and vomiting"
same,MTD,[1],not reached
CC(C)(C)C[C@@H]1N[C@@H](C(=O)N[C@H]2CC[C@H](O)CC2)[C@H](c2cccc(Cl)c2F)[C@]12C(=O)Nc1cc(Cl)ccc12 [SAR405838],Most common reported AEs,[2],"diarrhea, blood creatine phosphokinase increased, nausea, and vomiting"
CCOc1cc(C(C)(C)C)ccc1C1=N[C@@](C)(c2ccc(Cl)cc2)[C@@](C)(c2ccc(Cl)cc2)N1C(=O)N1CCN(CCCS(C)(=O)=O)CC1 [RG7112],Grade ≥ 3 lymphocyte count decreased,[3]; n = 76,11 patients
same,Grade ≥ 3 platelet count decreased,[3]; n = 76,two patients
same,Tolerability,[3]; patients (n = 76) with solid tumors,generally well tolerated
